Test results reported in patent US9283176B2, “Benzimidazole anthelmintic compositions” (Zoetis Services LLC, priority 2008, dated 2016).

What was measured:
[1] = Stability studies: total moxidectin and triclabendazole levels after storage; assay type: physicochemical; details: in Composition F, 25° C. or 40° C.; for Stability of the active during storage (in words): entire 6 month storage period
Description: Stability studies were conducted to ensure that a composition according to the present invention was stable. Composition F of Example 3 was prepared according to the process described in Example 1 and stored at either ambient (25° C.) or 40° C. for a total period of 6 months. At the conclusion of each storage period shown in Table V below, samples were tested for total moxidectin and triclabendazole levels.

[2] = Triclabendazole solubility in various lactone solvents; assay type: physicochemical
Description: Still further embodiments of anthelmintic compositions representative of the present invention are prepared according to the process described in Example 1 above, except that lactone solvents other than γ-hexalactone are employed. In particular, the compositions are prepared with one of the following lactone solvents: butyrolactone, δ-hexalactone, γ-dodecalactone, δ-nonalactone, δ-decalactone, γ-decalactone, and δ-dodecalactone.

SMILES | Stability of the active during storage (in words) [1] | Solvency in lactone solvents (in words) ([2]; lactone solvents of Table VIII and similar lactones and combinations) | Triclabendazole Solubility (% w/w) ([2]; solvent γ-butyrolactone) | Triclabendazole Solubility (% w/w) ([2]; solvent γ-decalactone) | Triclabendazole Solubility (% w/w) ([2]; solvent γ-dodecalactone) | Triclabendazole Solubility (% w/w) ([2]; solvent γ-hexalactone) | Triclabendazole Solubility (% w/w) ([2]; solvent γ-nonalactone) | Triclabendazole Solubility (% w/w) ([2]; solvent δ-decalactone) | Triclabendazole Solubility (% w/w) ([2]; solvent δ-dodecalactone) | Physical state of the active during storage (in words) ([1]; up to 6 months)
CO/N=C1\C[C@]2(C[C@@H]3C[C@@H](C/C=C(\C)C[C@@H](C)/C=C/C=C4\CO[C@@H]5[C@H](O)C(C)=C[C@@H](C(=O)O3)[C@]45O)O2)O[C@H](/C(C)=C/C(C)C)[C@H]1C [Moxidectin] | remained stable and active |  |  |  |  |  |  |  |  | 
CSc1nc2cc(Cl)c(Oc3cccc(Cl)c3Cl)cc2[nH]1 [Triclabendazole, 5-chloro-6(2,3-dichlorophenoxy)-2-methylthio-1H-benzimidazole] | remained stable and active | surprisingly good solvency | >18.0 | 15.2 | 11.8 | 16.8 | 16.7 | 28.1 | 21.5 | remained in solution
